Source: the supplement of paper PMC7840683
± gives the standard deviation of the averaged measurements.

System: HepaRG
Assay: LDH release cytotoxicity, % of total lysis control; higher = more cytotoxic
Settings: 48 h
Summary of the method: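 On collagen I-coated 96-well plates, single-lot HepaRG cells were exposed for 48 h, in duplicate, to eight-point half-log series of test chemicals beginning at 100 µM. The exposure medium was serum-free induction medium with 0.5% DMSO, and total lysis wells got 0.1% Triton X. Resorufin fluorescence from the CytoTox-ONE reaction, read on a Tecan Safire, reported LDH in 50 µL of spent medium. Percent cytotoxicity came from normalization to on-plate vehicle and total lysis controls, averaged over the duplicates.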

SMILES | LDH release cytotoxicity (0.03162 µM) [%] | LDH release cytotoxicity (0.1 µM) [%] | LDH release cytotoxicity (0.3162278 µM) [%] | LDH release cytotoxicity (1 µM) [%] | LDH release cytotoxicity (3.16228 µM) [%] | LDH release cytotoxicity (10 µM) [%] | LDH release cytotoxicity (31.6228 µM) [%] | LDH release cytotoxicity (100 µM) [%] | LDH release cytotoxicity (0.0320971 µM) [%] | LDH release cytotoxicity (0.1015 µM) [%] | LDH release cytotoxicity (0.320971 µM) [%] | LDH release cytotoxicity (1.015 µM) [%] | LDH release cytotoxicity (3.2097118 µM) [%] | LDH release cytotoxicity (10.15 µM) [%] | LDH release cytotoxicity (32.0971 µM) [%] | LDH release cytotoxicity (101.5 µM) [%] | LDH release cytotoxicity (0.031623 µM) [%] | LDH release cytotoxicity (0.316228 µM) [%]
CCC(C)(C)c1ccc(O)cc1 [4-(2-Methylbutan-2-yl)phenol] | -0.822 ± 0.23 | -1.57 ± 0.82 | -1.05 ± 0.14 | -1.22 ± 0.6 | -1.65 ± 0.4 | -0.249 ± 0.14 | -1.75 ± 1.1 | 0.707 ± 0.61 | – | – | – | – | – | – | – | – | – | –
CCC(C)c1ccc(O)cc1 (configuration not stated) [4-(Butan-2-yl)phenol] | -1.68 ± 0.31 | -2.9 ± 0.076 | -2.9 ± 0.23 | -3.15 ± 0.78 | -2.86 ± 0.48 | -2.62 ± 0.47 | -1.77 ± 0.96 | -0.982 ± 0.8 | – | – | – | – | – | – | – | – | – | –
Nn1cnnc1 [4-Amino-1,2,4-triazole] | – | – | – | – | – | – | – | – | -2.94 ± 0.43 | -2.79 ± 0.045 | -3.1 ± 0.21 | -3.38 ± 1.2 | -2.7 ± 0.23 | -3.19 ± 0.35 | -3.08 ± 0.13 | 0.447 ± 1.1 | – | –
Nc1ccc(N=Nc2ccccc2)cc1 [4-Aminoazobenzene] | -0.0491 ± 1.1 | -1.19 ± 0.14 | -1.19 ± 0.25 | -1.05 ± 0.38 | -1.2 ± 0.12 | -0.585 ± 0.52 | 0.184 ± 1.3 | 0.63 ± 1.1 | – | – | – | – | – | – | – | – | – | –
Nc1ccc(C(=O)O)cc1 [4-Aminobenzoic acid] | – | -1.2 ± 2.3 | – | -2.3 ± 1.1 | -2.47 ± 0.28 | -1.41 ± 0.43 | -0.777 ± 0.61 | 1.93 ± 0.47 | – | – | – | – | – | – | – | – | -2.09 ± 0.27 | -0.757 ± 1.4
CC12CCC3C(CCC4=CC(=O)CCC43C)C1CCC2=O (configuration not stated) [4-Androstene-3,17-dione] | -0.88 ± 1.8 | -1.74 ± 1.8 | -3.47 ± 0.78 | -2.45 ± 0.041 | -1.84 ± 0.94 | -1.3 ± 1.1 | -0.324 ± 1.7 | 37.8 ± 21 | – | – | – | – | – | – | – | – | – | –
O=C1CCCO1 [4-Butyrolactone] | -0.251 ± 0.26 | -0.513 ± 0.22 | -0.359 ± 0.74 | -0.517 ± 0.14 | -0.65 ± 0.32 | 0.21 ± 0.013 | -0.668 ± 0.54 | 1.06 ± 1.1 | – | – | – | – | – | – | – | – | – | –
Nc1ccc(Cl)cc1N [4-Chloro-1,2-diaminobenzene] | -0.924 ± 0.44 | -0.99 ± 0.3 | -1.38 ± 0.26 | -1.19 ± 0.55 | -0.451 ± 0.11 | -0.557 ± 0.35 | -0.208 ± 0.24 | -0.194 ± 0.22 | – | – | – | – | – | – | – | – | – | –
Cc1cc(O)ccc1Cl [4-Chloro-3-methylphenol] | -0.825 ± 1.3 | -0.387 ± 0.92 | -0.309 ± 1.2 | -0.443 ± 0.47 | 0.57 ± 0.19 | 0.611 ± 0.11 | 0.786 ± 0.33 | 2.48 ± 0.35 | – | – | – | – | – | – | – | – | – | –
Nc1ccc(Cl)cc1 [4-Chloroaniline] | -1.56 ± 1.1 | -0.947 ± 0.94 | -2.25 ± 0.86 | -1.34 ± 1.4 | -0.444 ± 0.82 | -1.71 ± 0.56 | -1.53 ± 0.87 | 0.243 ± 0.87 | – | – | – | – | – | – | – | – | – | –
Clc1ccc(C(Cl)(Cl)Cl)cc1 [4-Chlorobenzotrichloride] | -1.85 ± 0.71 | -1.72 ± 0.36 | -2.4 ± 0.4 | -1.68 ± 1.3 | -1.91 ± 0.86 | -1.134 ± 0.011 | -0.341 ± 0.31 | 27.7 ± 9.1 | – | – | – | – | – | – | – | – | – | –
Cc1ccc(Cl)cc1 [4-Chlorotoluene] | – | -1.27 ± 2.3 | – | -2.78 ± 0.39 | -2.43 ± 0.42 | -1.55 ± 1.5 | -1.15 ± 0.57 | 1.18 ± 0.3 | – | – | – | – | – | – | – | – | -0.192 ± 0.14 | -1.26 ± 0.55
CC(C)(c1ccccc1)c1ccc(O)cc1 [4-Cumylphenol] | -1.06 ± 1.8 | 0.26 ± 0.48 | -1.3 ± 0.86 | -2.27 ± 0.56 | -0.891 ± 1.4 | -0.313 ± 0.88 | 2.91 ± 0.44 | 111 ± 5.5 | – | – | – | – | – | – | – | – | – | –
OC1CCC(C2CCCCC2)CC1 (configuration not stated) [4-Cyclohexylcyclohexanol] | -1.67 ± 0.32 | -1.27 ± 1.5 | -1.62 ± 1.1 | -2.39 ± 0.036 | -2.08 ± 1.7 | -1.58 ± 0.49 | -1.22 ± 0.35 | 0.00977 ± 0.63 | – | – | – | – | – | – | – | – | – | –
